How the values were obtained:
[1] = test system: panel of 144 protein kinases; experiment: Protein kinase panel (SelectScreen; Thermofisher); format: biochemical; conditions: 144 protein kinases incl. PKC isoforms, OSR1, SPAK, WNK
Experimental: Aliquots of HEK-293 cells expressing KCC2 were exposed to 30 μM SSA, heated from 37-55° C. The remaining level of soluble native KCC2 at each temperature was measured by immunoblotting and normalized to the level seen at 37° C. which was given a value of 1. […] This panel included protein kinase C isoforms, OSR1, SPAK (STK39) and with-no-lysine kinases (WNK), all of which phosphorylate KCC2 on multiple residues to indirectly modify its activity (Kahle et al., 2013, supra; Smalley et al., 2020, supra).

KA induced SE [2] = experiment: Kainic acid (KA) induced SE, EEG, pretreatment; format: in vivo, mice; conditions: Compound A pretreated, 2 h after KA, pre DZ; vehicle 4.2±2.4×10^−6
Text: This model was chosen due to the similarities with patients undergoing SE, as KA-induced seizures become refractory to benzodiazepines (BDZs) within minutes (Betjemann and Lowenstein, Lancet Neurol 14, 615-624 (2015); Crawshaw and Cock, (2020a) [Seizure: Eur. J. Epilep. 75 (2020) 145-152] Seizure 80, 282; Lee et al., 2022, supra; Reddy and Kuruba, Int J Mol Sci 14, 18284-18318 (2013)).
EEG recordings and analysis. WT C57Bl/6J adult male mice (12 weeks) were anesthetized with isofluorane and implanted with EEG/EMG electrodes and allowed to recover for 7 days prior to experimentation. […] 2 h following KA administration mice were injected with a saturating concentration of diazepam (DZ) 10 mg/kg (IP) and recordings were extended for a further 60 min. […] LabChart 8 software was used for data analysis. […]
To provide quantitative insights on the effects of KA, raw EEG recordings were subject to Fast-Fourier transformation (8K FFT size, Hann (cosine-bell), 87.50% window overlap) for frequencies between 0-100 Hz 2 h after KA injection (Lee et al., 2022, supra). […]

KCC2 = target: T1, KCC2 (Homo sapiens, UniProt Q9H2X9); experiment: FLIPR Tl+ flux assay in HEK-293 cells expressing KCC2; format: cell-based; conditions: saturating concentration of 3 μM, 1% BCD vehicle
T1 construct: expressed in transfected cells; host or cells: HEK-293 (ATCC CRL-1573)
T1 sequence (Q9H2X9 1-1116 isoform Q9H2X9-2): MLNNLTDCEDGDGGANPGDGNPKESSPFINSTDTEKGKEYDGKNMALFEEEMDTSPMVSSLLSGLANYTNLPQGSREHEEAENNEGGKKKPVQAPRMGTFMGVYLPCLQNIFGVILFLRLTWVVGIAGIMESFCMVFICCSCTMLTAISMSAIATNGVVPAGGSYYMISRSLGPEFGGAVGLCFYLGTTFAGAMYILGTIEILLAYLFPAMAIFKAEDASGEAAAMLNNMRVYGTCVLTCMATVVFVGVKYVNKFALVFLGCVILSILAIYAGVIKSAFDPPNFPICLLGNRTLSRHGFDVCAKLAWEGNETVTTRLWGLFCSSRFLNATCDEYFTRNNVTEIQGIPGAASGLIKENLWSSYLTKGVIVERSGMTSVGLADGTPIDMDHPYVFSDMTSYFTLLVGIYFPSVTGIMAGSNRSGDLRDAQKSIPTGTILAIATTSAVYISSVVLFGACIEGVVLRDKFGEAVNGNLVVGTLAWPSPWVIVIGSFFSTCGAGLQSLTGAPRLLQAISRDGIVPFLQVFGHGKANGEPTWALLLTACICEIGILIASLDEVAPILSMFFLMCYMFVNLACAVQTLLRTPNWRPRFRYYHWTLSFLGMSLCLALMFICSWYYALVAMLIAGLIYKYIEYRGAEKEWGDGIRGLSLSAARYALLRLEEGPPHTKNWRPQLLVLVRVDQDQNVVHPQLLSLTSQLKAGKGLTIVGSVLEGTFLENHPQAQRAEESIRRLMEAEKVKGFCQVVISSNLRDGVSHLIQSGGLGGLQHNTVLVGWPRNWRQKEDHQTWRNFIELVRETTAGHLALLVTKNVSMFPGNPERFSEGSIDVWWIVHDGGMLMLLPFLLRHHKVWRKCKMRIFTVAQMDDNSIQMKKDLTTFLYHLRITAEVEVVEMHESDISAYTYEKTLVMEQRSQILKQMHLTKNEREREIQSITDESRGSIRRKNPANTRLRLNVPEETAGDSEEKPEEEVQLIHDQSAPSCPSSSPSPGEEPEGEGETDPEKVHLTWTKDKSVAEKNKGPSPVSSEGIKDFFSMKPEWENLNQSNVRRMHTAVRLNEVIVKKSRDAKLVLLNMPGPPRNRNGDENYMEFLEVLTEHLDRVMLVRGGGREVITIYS
Experimental: A multi-tiered high-throughput screening assay was used, leveraging a proprietary library of 1.3 million small molecule compounds from AstraZeneca (Cambridge, UK) to identify chemical entities capable of activating KCC2. A single point concentration of 30 μM was used to identify potassium flux using an established thallium (TI+) influx FLIPR assay as the primary read out in HEK-293 cells overexpressing KCC2 (Cardarelli et al., Nat. Med. 23, 1394-1396 (2017); Conway et al., J Biol Chem 292, 21253-21263 (2017); Lee et al., 2022, supra).
Cell Culture and biotinylation. […]
FLIPR TI Flux assay. HEK-293 cells were washed with HBSS, and then incubated with loading buffer containing TI sensitive fluorescent dye (https://www.moleculardevices.com), 20 μM bumetanide 20 μM ouabain and 2.5 mM probenecid for 1 h at room temperature (RT) under control conditions or with drugs in the dark using a FlexStation 3 microplate reader (Molecular Devices) and imaged […] for 30 min. Stimulus buffer was added containing 5 mM K^+/0.5 mM Tl^+ and cells were imaged every 1.5 over a 190 second time course The initial rate Tl^+ uptake (Relative Fluorescence Units (RFU) per second) was determined following addition of the stimulus buffer as outlined previously (Conway et al., 2017, supra) (Lee et al., 2022, supra). […]

KA induced SE [3] = experiment: KA induced SE, EEG, direct injection into the hippocampus; format: in vivo, mice; conditions: injected into the hippocampus, DZ 2 h after KA
Experimental: 30 or 60 min later mice were injected with KA (20 mg/kg) and 2 h later with DZ as detailed above.

KA induced SE [4] = experiment: KA induced ongoing SE, EEG, treatment 2 h after KA; format: in vivo, mice
Experimental: EEG recordings and analysis. WT C57Bl/6J adult male mice (12 weeks) were anesthetized with isofluorane and implanted with EEG/EMG electrodes and allowed to recover for 7 days prior to experimentation. […] 2 h following KA administration mice were injected with a saturating concentration of diazepam (DZ) 10 mg/kg (IP) and recordings were extended for a further 60 min. […] LabChart 8 software was used for data analysis. Epileptiform activity was identified by changes in the amplitude of electrographic activity characterized by consistent changes in the power of the Fast Fourier transform (FFT) of the EEG and abnormal activity characterized by periods of rhythmic spiking lasting longer than 30 s (Moore et al., 2017, supra; Silayeva et al., 2015, supra; Sivakumaran et al., J. Neurosci. 35, 8291-8296 (2015)).
To evaluate the potential of KCC2 activators to terminate ongoing SE, the KA model described above was employed. Mice were injected with KA (20 mg/Kg; IP). […] Spectral data were then subjected to FFT and the total EEG power between 1-100 Hz of the 2 h following KA treatment (pre-drug) and 30 min following their injection (post-drug) were compared (FIG. 6B). In mice treated with DZ alone variable effects were observed, from large increases to modest reductions in EEG power, but these effects were not significant (FIG. 6C; pre=1.1±0.2×10^−6, post=4.4±7.4×10^−7 μV^2, p=0.214, n=13-14 mice). […]

Compound	activity of kinase panel [1]	total EEG power (KA induced SE [2])	maximum potentiation (KCC2)	effect of DZ on seizure parameters in pretreated mice (KA induced SE [3])	DZ insensitivity (KA induced SE [4]; Compound A 50 mg/kg with DZ 10 mg/kg IP)	mice insensitive to the effects on EEG power (KA induced SE [4]; DZ 10 mg/kg IP 2 h after KA)
C[C@@H]1CN(c2nc3c(c(Nc4ccc(C5CCCCC5)cc4)n2)COC3)CCO1 [Compound A, (R)—N-(4-cyclohexylphenyl)-2-(2-methylmorpholino)-5,7-dihydrofuro[3,4-d]pyrimidin-4-amine]	did not modify the activity	6.9±3.2×10^−7 μV^2	90%	significantly reduced	abolished	
CN1C(=O)CN=C(c2ccccc2)c2cc(Cl)ccc21 [DZ, diazepam, reference compound]						62%
